This is an account of results in patent US11879012B2, “Method of modulating cell proliferation” (METRO NORTH HOSPITAL AND HEALTH SERVICE, priority 2018, dated 2024).

Test [1] deals with microvascular endothelial cells (MEC). Nature of the test: MTT assay, metabolic response of microvascular endothelial cells. In kind it is cell-based. How it is done: (§1) Measurement of mitochondrial enzyme activity by MTT conversion was utilised as an indirect assessment of metabolic and proliferative activity. MTT reagent was prepared by diluting the MTT stock solution (5 mg/mL) 1:10 in PBS (i.e., to a final concentration of 0.5 mg/mL MTT). Prior optimization of growth conditions (seeding density and duration in culture) was conducted to ensure sub-confluency at the time of measurement. For example, a seeding density of 10,000 cells per cm^2 and a culture period of 48-hours were routinely used. On the day of analysis, the culture medium was removed from each well and replaced with a fixed volume (0.5 mL per well of a 24 well plate) of MTT solution and incubated at 37° C. for 40 minutes. The MTT reagent was subsequently removed and the formazan product eluted by adding a fixed volume (300 μL per well of a 24 well plate) of acidified isopropanol (24.6 μL of concentrated HCL in 20 mL of isopropanol) to each well for approximately 5 minutes, 150 μL of the eluted stain from each well was then transferred into corresponding wells of a 96 well plate. The optical density was measured using a plate reader at 550 nm (background 620 nm). Microvascular endothelial cells (MEC) were cultured in MEC Culture Medium comprising 500 mL of MCDB-131 media containing 5 mL of 1M L-Glutamine, 5 Penicillin (10,000 IU/mL)/Streptomycin (10,000 ug/mL), 10% v/v foetal calf serum (FCS), 0.5 mL of 1 mg/mL hydrocortisone (Hc) and 0.5 mL of 10 ug/mL epidermal growth factor (EGF). Spent culture media was removed and the flask rinsed with 5 mL of phosphate buffered saline (without magnesium or calcium; PBSA). After 30 seconds, the PBSA was removed and 5 mL of 0.02% EDTA/0.05% trypsin reagent was added to the cells. The flask was then incubated at 37° C. for 5-8 minutes. The cells were then dislodged from the flask, removed and added to a 50 mL centrifuge tube containing an equal volume of culture media to neutralize the 0.02% EDTA/0.05% trypsin reagent. This tube was then centrifuged at 100 g for 5 minutes to form a pellet of cells. The supernatant was removed and the pellet of cells resuspended. The diluted cells were split 1:3 into new flasks containing culture media. The flasks were then placed in a humidified CO2 (5%) incubator at 37° C. until the cells were approximately 80% confluent. The process was repeated weekly. For the purpose of serum-free culturing, the MEC and LEC cells were serum starved by incubating them in serum-free MCDB-131 medium (Gibco/Life Technologies) for 12 hours. Limbal epithelial cells (LEC) were cultured in a similar manner to MEC in LEC Culture Medium comprising 500 mL of DMEM/F12 media containing 5 mL of 1M L-Glutamine, 5 mL of Pen (10,000 IU/mL)/Strep (10,000 ug/mL) and 10% FCS (v/v). Additional reagents used in these experiments are described below: • 0.02% EDTA/0.05% trypsin reagent: 5 mL of 2% EDTA solution and 10 mL of thawed 2.5% trypsin solution were added to 485 mL of PBSA, 50 mL aliquots were dispensed into 50 mL centrifuge tubes and stored below −20° C. • Pre-bound Collagen IV: 250 μL of Collagen IV stock solution was added to the wells of a 24 well tissue culture plate and allowed to dry completely over night in a biohazard cabinet. • Pre-bound Vitronectin: a vitronectin stock solution (2 mg/mL) was diluted in water to a final concentration of 5 μg/mL. […]
A general note: Tetrazolium dyes change colour on reduction, which living cells bring about.

For test [2], the system named is limbal epithelial cells (LEC). Nature of the test: MTT assay, metabolic response of limbal epithelial cells. In kind it is cell-based. The note with it: FIG. 8. How it is done: as §1, with “nm).” for “nm). Microvascular endothelial cells (MEC) were cultured in MEC Culture Medium comprising 500 mL of MCDB-131 media containing 5 mL of 1M L-Glutamine, 5 Penicillin (10,000 IU/mL)/Streptomycin (10,000 ug/mL), 10% v/v foetal calf serum (FCS), 0.5 mL of 1 mg/mL hydrocortisone (Hc) and 0.5 mL of 10 ug/mL epidermal growth factor (EGF).”, “(v/v).” for “(v/v). Additional reagents used in these experiments are described below: • 0.02% EDTA/0.05% trypsin reagent: 5 mL of 2% EDTA solution and 10 mL of thawed 2.5% trypsin solution were added to 485 mL of PBSA, 50 mL aliquots were dispensed into 50 mL centrifuge tubes and stored below −20° C. • Pre-bound Collagen IV: 250 μL of Collagen IV stock solution was added to the wells of a 24 well tissue culture plate and allowed to dry completely over night in a biohazard cabinet. • Pre-bound Vitronectin: a vitronectin stock solution (2 mg/mL) was diluted in water to a final concentration of 5 μg/mL.”

[3] abbreviates: agent alone, serum-starved cells, 2 days, glucose 10 mg/mL, thrombin 100 IU/mL.
Setting [4] is: agent alone, serum-starved cells, 2 days, glucose 10 mg/mL, thrombin 100 IU/mL, FIG. 7.

For the molecule anti-thrombin III, in test [1] (ATIII 10 IU/mL in the presence of thrombin (+glucose) and pre-bound PSGL-1, FIG. 9), the “proliferation of MEC” value is “stimulated the proliferation of MEC”. Take thrombin: the “proliferation of LEC” value in test [2] (setting [3]) and in test [2] (glucose with thrombin) was “did not significantly stimulate proliferation” throughout. The “proliferation of MEC” value is “stimulated proliferation of MEC in synergy with glucose, exceeding the positive control” in test [1] (100 IU/mL thrombin with glucose, FIG. 7) and “did not significantly stimulate proliferation of endothelium” in test [1] (setting [4]).

B1: PSGL-1: pre-bound selectin receptor, P-selectin glycoprotein ligand-1 (protein, UniProt Q14242 42-412, looked up)
P-selectin glycoprotein …: QATEYEYLDYDFLPETEPPEMLRNSTDTTPLTGPGTPESTTVEPAARRSTGLDAGGAVTELTTELANMGNLSTDSAAMEIQTTQPAATEAQTTQPVPTEAQTTPLAATEAQTTRLTATEAQTTPLAATEAQTTPPAATEAQTTQPTGLEAQTTAPAAMEAQTTAPAAMEAQTTPPAAMEAQTTQTTAMEAQTTAPEATEAQTTQPTATEAQTTPLAAMEALSTEPSATEALSMEPTTKRGLFIPFSVSSVTHKGIPMAASNLSVNYPVGAPDHISVKQCLLAILILALVATIFFVCTVVLAVRLSRKGHMYPVRNYSPTEMVCISSLLPDGGEGPSATANGGLSKAKSPGLTPEPREDREGDDLTLHSFLP
As to B1, the “thrombin induced proliferation of LEC” value in test [2] (pre-bound, in the presence of glucose) is “stimulated thrombin induced proliferation of LEC”.

B2: P-selectin: pre-bound recombinant human P-selectin (protein, UniProt P16109 42-830, looked up)
P-selectin: WTYHYSTKAYSWNISRKYCQNRYTDLVAIQNKNEIDYLNKVLPYYSSYYWIGIRKNNKTWTWVGTKKALTNEAENWADNEPNNKRNNEDCVEIYIKSPSAPGKWNDEHCLKKKHALCYTASCQDMSCSKQGECLETIGNYTCSCYPGFYGPECEYVRECGELELPQHVLMNCSHPLGNFSFNSQCSFHCTDGYQVNGPSKLECLASGIWTNKPPQCLAAQCPPLKIPERGNMTCLHSAKAFQHQSSCSFSCEEGFALVGPEVVQCTASGVWTAPAPVCKAVQCQHLEAPSEGTMDCVHPLTAFAYGSSCKFECQPGYRVRGLDMLRCIDSGHWSAPLPTCEAISCEPLESPVHGSMDCSPSLRAFQYDTNCSFRCAEGFMLRGADIVRCDNLGQWTAPAPVCQALQCQDLPVPNEARVNCSHPFGAFRYQSVCSFTCNEGLLLVGASVLQCLATGNWNSVPPECQAIPCTPLLSPQNGTMTCVQPLGSSSYKSTCQFICDEGYSLSGPERLDCTRSGRWTDSPPMCEAIKCPELFAPEQGSLDCSDTRGEFNVGSTCHFSCDNGFKLEGPNNVECTTSGRWSATPPTCKGIASLPTPGVQCPALTTPGQGTMYCRHHPGTFGFNTTCYFGCNAGFTLIGDSTLSCRPSGQWTAVTPACRAVKCSELHVNKPIAMNCSNLWGNFSYGSICSFHCLEGQLLNGSAQTACQENGHWSTTVPTCQAGPLTIQEALTYFGGAVASTIGLIMGGTLLALLRKRFRQKDDGKCPLNPHSHLGTYGVFTNAAFDPSP
For the molecule B2, the “thrombin-induced proliferation of MEC” value in test [1] (pre-bound, in the presence of glucose, absence of collagen IV and vitronectin, FIG. 7) is “reduced the thrombin-induced proliferation of MEC”.

B3: vitronectin: pre-bound basement membrane protein (protein, UniProt P04004 20-478, looked up)
Vitronectin: DQESCKGRCTEGFNVDKKCQCDELCSYYQSCCTDYTAECKPQVTRGDVFTMPEDEYTVYDDGEEKNNATVHEQVGGPSLTSDLQAQSKGNPEQTPVLKPEEEAPAPEVGASKPEGIDSRPETLHPGRPQPPAEEELCSGKPFDAFTDLKNGSLFAFRGQYCYELDEKAVRPGYPKLIRDVWGIEGPIDAAFTRINCQGKTYLFKGSQYWRFEDGVLDPDYPRNISDGFDGIPDNVDAALALPAHSYSGRERVYFFKGKQYWEYQFQHQPSQEECEGSSLSAVFEHFAMMQRDSWEDIFELLFWGRTSAGTRQPQFISRDWHGVPGQVDAAMAGRIYISGMAPRPSLAKKQRFRHRNRKGYRSQRGHSRGRNQNSRRPSRATWLSLFSSEESNLGANNYDDYRMDWLVPATCEPIQSVFFFSGDKYYRVNLRTRRVDTVDPPYPRSIAQYWLGCPAPGHL
For the molecule B3, the “proliferation of LEC” value in test [2] (setting [3]) was “did not significantly stimulate proliferation”. Besides, the “proliferation of MEC” value in test [1] (setting [4]) is “did not significantly stimulate proliferation of endothelium”.
